4 molecules from ChEMBL document CHEMBL1159201, “Microbial biotransformation of veratramine” (J Nat Prod, 1998) can be followed below.

In one data set the test system is Vero. Nature of the data set: Cytotoxicity against african green monkey Vero cells. Format: cell-based. Conditions: chlorocebus sabaeus.
The next data set has as its system Plasmodium falciparum. Put plainly: Antiplasmodial activity against Plasmodium falciparum W2. Format: functional, organism-based.

≈ marks a conversion by molar mass, not a printed value.

For the molecule `Cc1c([C@H](C)[C@@H]2NC[C@@H](C)C[C@H]2O)ccc2c1C[C@H]1[C@H]2CCC2=CC(=O)CC[C@@]21C`, in the data set with Vero, the Activity result is “Non-toxic”.

For `Cc1c([C@H](C)[C@@H]2NC[C@@H](C)C[C@H]2O)ccc2c1C[C@H]1[C@H]2CCC2=CC(=O)C=C[C@@]21C`, the IC50 (commonly the concentration that gives 50% inhibition) in the data set on Plasmodium falciparum was determined as 3.6 µg/mL (≈ 8.88 µM). Further, the Activity result with Vero was “Non-toxic”.

As for `Cc1c([C@H](C)[C@@H]2NC[C@@H](C)C[C@H]2O)ccc2c1C[C@H]1[C@H]2CC[C@H]2CC(=O)CC[C@@]21C` [DIHYDROVERATRAM-3-ONE], the Activity result with Vero was “Non-toxic”.

Turning to `Cc1c([C@H](C)[C@@H]2NC[C@@H](C)C[C@H]2O)ccc2c1C[C@H]1[C@H]2CC=C2C[C@@H](O)CC[C@@]21C` [VERATRAMINE], the Activity result in the data set on Vero is “Non-toxic”.
